Source: article PMC6585632 (Clinical Pharmacology in Drug Development, 2018)
“And” between values parts separate entries of the source, which are not always exact repeats. Identical values can stand only once. “Also recorded” adds a separate entry of the source. Like-named read-outs stand apart in the source and are kept apart here. Marks after values point to notes of the source that are not given here.

How the values were obtained:
[1] = type: in vivo, human; settings: for Steady state reached by: plasma trough concentrations; for Arithmetic Mean CLss/F (CV%): day 15 steady state
[2] = Effect of a high-fat meal on single-dose pharmacokinetics; type: in vivo, human; settings: for AUC / Cmax / half-life / Tmax: human, plasma, oral; for AUC: AUC0‐24h
[3] = Steady-state pharmacokinetics in food effect cohorts; type: in vivo, human; settings: for Tmax / Cmax / AUC / half-life: human, plasma, oral; for Cmax / AUC / half-life: cycle 1 day 15 steady state; for AUC: AUC0‐t
[4] = Dose proportionality at steady state; type: in vivo, human; settings: 40–500 mg QD and 240–840 mg BID
[5] = Safety: treatment-emergent adverse events; type: in vivo, human
human hepatocytes = settings: incubation with human hepatocytes; ref Clovis Oncology, Inc., data on file; cited from earlier work
[6] = incubation with human liver microsomes; ref Clovis Oncology, Inc., data on file; cited from earlier work
[7] = tested on: Recombinant human cytochrome P450 (CYP) 2D6; settings: recombinant human CYP2D6; ref Clovis Oncology, Inc., data on file; cited from earlier work
[8] = normal metabolizers vs hyperinducers; cited from earlier work
[9] = Part 3, single dose 600 mg, fasted
[10] = Part 3, single dose 600 mg, fed
[11] = Part 3, single dose 600 mg, high‐fat meal
[12] = 40 mg, arithmetic mean, Part 1, single dose 40 mg, cycle 1 day –7 fasted, n 3
[13] = 40 mg, median, Part 1, single dose 40 mg, cycle 1 day –7 fasted, n 3
[14] = 40 mg, median, Part 1, single dose 40 mg, cycle 1 day 1 fed (high-fat meal), n 3
[15] = Part 3, 600 mg BID (n = 26), Grade 5

## CNCc1ccc(-c2[nH]c3cc(F)cc4c3c2CCNC4=O)cc1 [rucaparib]
[1]; BID dosing 240‐840 mg
  steady‐state accumulation ratio (Rac_AUC0‐12h), range over cohorts: 1.47 to 5.44
[1]; BID dosing schedule
  Estimated mean CLss/F, range over cohorts: 26.2 to 58.6 L/h
  Steady state reached by: ≤ 8 cycle 1 day
[1]; Part 1, 40 mg QD oral
  Arithmetic Mean CLss/F (CV%): 26.7 (59) L/h
[1]; Part 1, 80 mg QD oral
  Arithmetic Mean CLss/F (CV%): 47.5 (23) L/h
[1]; Part 1, 160 mg QD oral, n = 3
  Arithmetic Mean CLss/F (CV%): 41.6 (29) ^b L/h
[1]; Part 1, 240 mg BID oral, n = 2
  Arithmetic Mean CLss/F (CV%): 27.3 ^a L/h
[1]; Part 1, 300 mg QD oral
  Arithmetic Mean CLss/F (CV%): 46.7 (63) L/h
[1]; Part 1, 360 mg BID oral, n = 2
  Arithmetic Mean CLss/F (CV%): 40.4 ^a L/h
[1]; Part 1, 480 mg BID oral, n = 6
  Arithmetic Mean CLss/F (CV%): 26.2 (63) ^d L/h
[1]; Part 1, 500 mg QD oral
  Arithmetic Mean CLss/F (CV%): 27.8 (35) L/h
[1]; Part 1, 600 mg BID oral, n = 4
  Arithmetic Mean CLss/F (CV%): 58.6 (123) ^g L/h
[1]; Part 1, 840 mg BID oral, n = 1
  Arithmetic Mean CLss/F (CV%): 29 ^c L/h
[1]; Part 1 BID cohorts
  Rac_Cmax at steady state, range over cohorts: 2.6 to 4.9
[1]; Part 1 QD cohorts
  Rac_Cmax at steady state, range over cohorts: 1.06 to 1.8
[1]; QD dosing 40‐500 mg
  steady‐state accumulation ratio (Rac_AUC0‐24h), range over cohorts: 1.60 to 2.33 and 1.6 to 2.33
[1]; QD dosing schedule
  Estimated mean CLss/F, range over cohorts: 26.7 to 47.5 L/h
  Steady state reached by: ≤ 8 cycle 1 day
[1]; at tested oral dose levels
  CLss as share of the normal liver blood flow rate (1450 mL/min): ≤ 24%
  CLss, estimated from CLss/F and oral bioavailability of 36%: ≤ 350 mL/min
[1]; human, plasma, oral, 500 mg, mean Cmax, range over cohorts, Part 1 QD cohorts 40‐500 mg, cycle 1 day 1 single dose
  Cmax: 114 to 949 ng/mL
[1]; human, plasma, oral, Median tmax, range over cohorts, Part 1 QD cohorts
  Tmax: 1.5 to 4 h
[1]; human, plasma, oral, cohort median tmax, range, across all doses and tablet strengths tested (Parts 1 and 3)
  Tmax: 1.5 to 6 h
[1]; human, plasma, po, 360 mg, Median tmax (range), Part 1, 360 mg BID oral, day 1
  Tmax: 3.23 h
[2]; Part 1, single dose of 40 mg (n = 3) or 300 mg (n = 6)
  effect of food (high‐fat meal) on rucaparib pharmacokinetics: No effect of food; also recorded: Minimal food effect
[2]; Part 3, single dose 600 mg
  median tmax delay by a high‐fat meal: 2.5 h
[2]; [9]
  intersubject variability (CV%) of the geometric mean AUC0‐24h: 84.6%
  intersubject variability (CV%) of the geometric mean Cmax: 87.5%
[2]; [10]
  intersubject variability (CV%) of the geometric mean AUC0‐24h: 86.8%
  intersubject variability (CV%) of the geometric mean Cmax: 82.8%
[2]; [11]
  fed‐to‐fasted geometric mean ratio (90%CI) for AUC0‐24h: 138%
  fed‐to‐fasted geometric mean ratio (90%CI) for Cmax: 120%
[2]; 40 mg, arithmetic mean, Part 1, single dose 40 mg, cycle 1 day 1 fed (high-fat meal), n 2
  AUC: 794 ng·h/mL
[2]; [12]
  AUC: 741 ng·h/mL
  Cmax: 77.9 ng/mL
[2]; 40 mg, median, Part 1, single dose 40 mg, cycle 1 day 1 fed (high-fat meal), n 2
  AUC: 794 ng·h/mL
[2]; [13]
  AUC: 468 ng·h/mL
  Cmax: 57.6 ng/mL
  Tmax: 4 h
[2]; 40 mg, arithmetic mean, Part 1, single dose 40 mg, cycle 1 day 1 fed (high-fat meal), n 3
  Cmax: 64.8 ng/mL
[2]; [14]
  Cmax: 71.1 ng/mL
  Tmax: 2.55 h
[2]; 40 mg, t1/2, arithmetic mean, Part 1, single dose 40 mg, cycle 1 day 1 fed (high-fat meal), n 3
  half-life: 756 min
[2]; 40 mg, t1/2, arithmetic mean, Part 1, single dose 40 mg, cycle 1 day –7 fasted, n 3
  half-life: 636 min
[2]; 40 mg, t1/2, median, Part 1, single dose 40 mg, cycle 1 day 1 fed (high-fat meal), n 3
  half-life: 762 min
[2]; 40 mg, t1/2, median, Part 1, single dose 40 mg, cycle 1 day –7 fasted, n 3
  half-life: 490 min
[2]; 300 mg, arithmetic mean, Part 1, single dose 300 mg, cycle 1 day 1 fed (high-fat meal), n 5
  AUC: 6890 ng·h/mL
[3]; continuous 600 mg BID, Part 3, CV 45%
  Mean (CV%) steady‐state CLss/F: 44.2 L/h
[3]; 40 mg
  Tmax: 4 h
[3]; 40 mg, arithmetic mean, Part 1 food effect cohort, 40 mg QD, n 3
  Cmax: 129 ng/mL
[3]; 40 mg, median, Part 1 food effect cohort, 40 mg QD, n 3
  Cmax: 103 ng/mL
[3]; 300 mg
  Tmax: 2.47 h
[3]; 300 mg, arithmetic mean, Part 1 food effect cohort, 300 mg QD, t = 24 hours, n 3
  AUC: 13300 ng·h/mL
[3]; 300 mg, median, Part 1 food effect cohort, 300 mg QD, t = 24 hours, n 3
  AUC: 5220 ng·h/mL
[3]; 300 mg, arithmetic mean, Part 1 food effect cohort, 300 mg QD, n 5
  Cmax: 727 ng/mL
[3]; 300 mg, median, Part 1 food effect cohort, 300 mg QD, n 5
  Cmax: 444 ng/mL
[3]; 300 mg, t1/2, arithmetic mean, Part 1 food effect cohort, 300 mg QD, n 3
  half-life: 1200 min
[3]; 300 mg, t1/2, median, Part 1 food effect cohort, 300 mg QD, n 3
  half-life: 1650 min
[3]; 600 mg
  Tmax: 1.92 h
[3]; 600 mg, arithmetic mean, Part 3, 600 mg BID, t = 10 hours, n 18
  AUC: 15800 ng·h/mL
[3]; 600 mg, median, Part 3, 600 mg BID, t = 10 hours, n 18
  AUC: 12900 ng·h/mL
[3]; 600 mg, arithmetic mean, Part 3, 600 mg BID, n 18
  Cmax: 1940 ng/mL
[3]; 600 mg, median, Part 3, 600 mg BID, n 18
  Cmax: 1480 ng/mL
[4]
  dose proportionality of plasma exposure: approximately dose proportional
[5]; Part 1
  deaths due to disease progression: Three
  treatment‐related deaths: No treatment‐related deaths
[5]; Part 3, 600 mg BID
  treatment‐related deaths: No treatment‐related deaths
[5]; [15]
  Dyspnea: 1 (3.8%) n (%)
  Pulmonary embolism: 1 (3.8%) n (%)
Human hepatocytes
  metabolic turnover rate: slow metabolic turnover rates
[6]
  metabolic turnover rate: slow metabolic turnover rates
[7]
  metabolism by recombinant enzyme: able to metabolize rucaparib
[8]
  effect of CYP1A2 polymorphisms on pharmacokinetics: no apparent effect
